ChEMBL document CHEMBL2157879, “Improving the affinity of naphthalene diimide ligand to telomeric DNA by incorporating Zn²⁺ ions into its dipicolylamine groups” (Bioorg Med Chem, 2012)
pEC50: −log10 of the molar value. Active and inactive are the calls of the source. The calls are words filed in the database; no cut-off is given here.

Legend:
[1] = system: Nucleic Acid; assay: Binding affinity to TAGGG(TTAGGG)3 G-quadruplex in Tris-HCl buffer by spectrophotometric titration method in presence of 100 mM KCl; assay type: nucleic-acid assay
[2] = system: Nucleic Acid; assay: Binding affinity to AGGG(TTAGGG)3 G-quadruplex in Tris-HCl buffer by spectrophotometric titration method in presence of 100 mM KCl; assay type: nucleic-acid assay
[3] = system: Nucleic Acid; assay: Binding affinity to biotin-labeled TAGGG(TTAGGG)3 at 1 to 960 nM by SPR analysis in presence of […]; assay type: nucleic-acid assay
[4] = system: Nucleic Acid; assay: Binding affinity to ds AGGG(TTAGGG)3 in Tris-HCl buffer assessed as melting temperature at DNA/compound molar ratio 1:2 by CD titration method in presence of 100 mM KCl (reference value: 58 degC); assay type: nucleic-acid assay
[5] = system: Nucleic Acid; assay: Binding affinity to TAGGG(TTAGGG)3 G-quadruplex in Tris-HCl buffer by UV-vis spectrophotometric titration method in presence of 100 mM KCl; assay type: nucleic-acid assay
[6] = target: Telomerase reverse transcriptase (Homo sapiens, UniProt O14746); assay: Inhibition of telomerase-mediated primer elongation by gel electrophoresis-based TRAP assay
Chain of Telomerase reverse transcriptase (O14746 whole entry): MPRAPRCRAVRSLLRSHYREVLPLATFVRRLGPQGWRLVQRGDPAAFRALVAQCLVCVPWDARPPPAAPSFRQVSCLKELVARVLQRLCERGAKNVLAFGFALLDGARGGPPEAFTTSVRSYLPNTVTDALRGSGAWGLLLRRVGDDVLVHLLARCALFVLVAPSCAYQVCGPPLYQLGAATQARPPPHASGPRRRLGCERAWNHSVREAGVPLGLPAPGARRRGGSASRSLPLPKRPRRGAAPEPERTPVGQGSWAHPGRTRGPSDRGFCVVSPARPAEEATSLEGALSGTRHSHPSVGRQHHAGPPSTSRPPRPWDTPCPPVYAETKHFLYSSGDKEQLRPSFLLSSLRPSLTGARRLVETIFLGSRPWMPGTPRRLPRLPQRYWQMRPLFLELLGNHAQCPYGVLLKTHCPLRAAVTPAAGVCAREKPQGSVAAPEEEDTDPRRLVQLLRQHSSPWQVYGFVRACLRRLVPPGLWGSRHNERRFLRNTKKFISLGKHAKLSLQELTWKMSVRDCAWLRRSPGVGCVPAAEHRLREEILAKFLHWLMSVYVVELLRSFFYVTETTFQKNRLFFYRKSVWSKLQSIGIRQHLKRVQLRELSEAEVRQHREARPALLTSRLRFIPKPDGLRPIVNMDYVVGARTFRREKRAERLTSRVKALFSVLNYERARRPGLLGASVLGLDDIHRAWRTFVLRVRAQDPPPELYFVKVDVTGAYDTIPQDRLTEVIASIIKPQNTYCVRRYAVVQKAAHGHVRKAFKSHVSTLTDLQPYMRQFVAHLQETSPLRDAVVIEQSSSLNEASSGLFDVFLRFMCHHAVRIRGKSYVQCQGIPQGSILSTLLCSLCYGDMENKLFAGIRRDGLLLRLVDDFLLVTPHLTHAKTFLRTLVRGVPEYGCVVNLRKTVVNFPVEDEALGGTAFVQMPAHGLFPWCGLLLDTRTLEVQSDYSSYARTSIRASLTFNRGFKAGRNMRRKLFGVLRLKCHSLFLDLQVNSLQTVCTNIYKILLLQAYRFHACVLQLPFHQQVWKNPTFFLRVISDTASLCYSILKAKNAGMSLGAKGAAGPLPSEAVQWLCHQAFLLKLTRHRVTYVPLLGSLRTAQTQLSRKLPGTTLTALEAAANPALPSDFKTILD

[7] = system: Nucleic Acid; assay: Binding affinity to AGGG(TTAGGG)3 G-quadruplex in Tris-HCl buffer by UV-vis spectrophotometric titration method in presence of 100 mM KCl; assay type: nucleic-acid assay
[8] = system: Nucleic Acid; assay: Binding affinity to biotin-labeled TAGGG(TTAGGG)3 at 1 to 960 nM by SPR analysis in presence of 0.15 mM NaCl; assay type: nucleic-acid assay
[9] = system: Nucleic Acid; assay: Binding affinity to biotin-labeled AGGG(TTAGGG)3 at 1 to 960 nM by SPR analysis in presence of […]; assay type: nucleic-acid assay
[10] = system: Nucleic Acid; assay: Binding affinity to AGGG(TTAGGG)3 G-quadruplex in Tris-HCl buffer assessed as change in melting temperature at 3 uM by CD titration method in presence of 100 mM KCl; assay type: nucleic-acid assay
[11] = system: Nucleic Acid; assay: Binding affinity to biotin-labeled AGGG(TTAGGG)3 at 1 to 960 nM by SPR analysis in presence of 0.15 mM NaCl; assay type: nucleic-acid assay
[12] = system: Nucleic Acid; assay: Binding affinity to ds AGGG(TTAGGG)3 in Tris-HCl buffer after 2 hrs by UV-vis spectrophotometric titration method in presence of 100 mM KCl; assay type: nucleic-acid assay
[13] = system: Nucleic Acid; assay: Stabilization of AGGG(TTAGGG)3 G-quadruplex in Tris-HCl buffer at DNA/ligand molar ratio 1 to 4 by CD titration method in presence of 100 mM KCl; assay type: nucleic-acid assay
[14] = system: Nucleic Acid; assay: Binding affinity to TAGGG(TTAGGG)3 G-quadruplex in Tris-HCl buffer assessed as change in melting temperature at 3 uM by CD titration method in presence of 100 mM NaCl; assay type: nucleic-acid assay
[15] = system: Nucleic Acid; assay: Binding affinity to TAGGG(TTAGGG)3 G-quadruplex in Tris-HCl buffer assessed as change in melting temperature at 3 uM by CD titration method in presence of 100 mM KCl; assay type: nucleic-acid assay
[16] = system: Nucleic Acid; assay: Stabilization of TAGGG(TTAGGG)3 G-quadruplex in Tris-HCl buffer at DNA/ligand molar ratio 1 to 4 by CD titration method 100 mM KCl; assay type: nucleic-acid assay
[17] = system: Nucleic Acid; assay: Binding affinity to AGGG(TTAGGG)3 G-quadruplex in Tris-HCl buffer assessed as change in melting temperature at 3 uM by CD titration method in presence of 100 mM NaCl; assay type: nucleic-acid assay

Question: What does the source list for CN(CCCN(Cc1ccccn1)Cc1ccccn1)CCCN1C(=O)c2ccc3c4c(ccc(c24)C1=O)C(=O)N(CCCN(C)CCCN(Cc1ccccn1)Cc1ccccn1)C3=O?
Answer: K [1]: 2.8 µM; K [2]: 1.1 µM; Activity [3]: Active; Tm [4]: 66 °C; Activity [5]: inactive; pEC50 [6]: 5.40; Activity [7]: inactive; Activity [8]: inactive; Activity [9]: Active; ΔTm [10]: 12 °C; Activity [11]: inactive; K [12]: 0.9 µM; Activity [13]: Active; ΔTm [14]: 1 °C; ΔTm [15]: 13 °C; Activity [16]: Active; ΔTm [17]: 1 °C
